Experimental findings from patent publication US20250049817A1, “JAK INHIBITOR WITH A VITAMIN D ANALOG FOR TREATMENT OF SKIN DISEASES” (INCYTE CORPORATION, priority 2020, published 2025) are described below.

In experiment [1] the test system is human JAK1 (a.a. 837-1142). Briefly: In vitro JAK kinase assay (HTRF), JAK1. The class given is biochemical. To be noted: JAK2/JAK1 IC50 ratio, 1 mM ATP. For orientation: TR-FRET usually uses a lanthanide donor and a delayed reading to cut background.
Experiment [2] deals with human JAK1 (a.a. 837-1142) (Homo sapiens, UniProt P23458). Briefly: In vitro JAK kinase assay (HTRF), JAK1. The class given is biochemical. The conditions noted are these: 1 mM ATP.

In general, IC50 refers to the point on the concentration scale where inhibition reaches its midpoint. The low end stands for greater potency, the high end for weaker potency. `N#CC[C@]1(n2cc(-c3ncnc4[nH]ccc34)cn2)C[C@H](N2CCC(Oc3cc(CN4CCC[C@@H]4CO)cc(C(F)(F)F)n3)CC2)C1` [Compound 13, {trans-3-(4-{[4-{[(2R)-2-(hydroxymethyl)pyrrolidin-1-yl]methyl}-6-(trifluoromethyl)pyridin-2-yl]oxy}piperidin-1-yl)-1-[4-(7H-pyrrolo[2,3-d]pyrimidin-4-yl)-1H-pyrazol-1-yl]cyclobutyl}acetonitrile]: the JAK2/JAK1 in experiment [1] was >10. For the same compound, the IC50 in experiment [2] was < 10 nM.

Turning to `C[C@@H](O)c1nc2cnc3ccsc3c2n1[C@H]1CC[C@H](CC#N)OC1` [Compound 5, ((2R,5S)-5-{2-[(1R)-1-hydroxyethyl]-1H-imidazo[4,5-d]thieno[3,2-b]pyridin-1-yl}tetrahydro-2H-pyran-2-yl)acetonitrile], in experiment [1], the JAK2/JAK1 is recorded as >10. Besides, the 50% inhibitory concentration (IC50) in experiment [2] was < 100 nM.

Turning to `N#CCC1(n2cc(-c3ncnc4[nH]ccc34)cn2)CN([C@H]2CC[C@@H](Oc3cc(CCO)nc(C(F)(F)F)n3)CC2)C1` [Compound 18, {1-(cis-4-{[6-(2-hydroxyethyl)-2-(trifluoromethyl)pyrimidin-4-yl]oxy}cyclohexyl)-3-[4-(7H-pyrrolo[2,3-d]pyrimidin-4-yl)-1H-pyrazol-1-yl]azetidin-3-yl}acetonitrile], the JAK2/JAK1 in experiment [1] is given as >10. For the same compound, the IC50 in experiment [2] is < 10 nM.

Regarding `N#CCC(CN1CCN(C(=O)c2ccc(C#N)cc2F)CC1)n1cc(-c2ncnc3[nH]ccc23)cn1` (centres unmarked) [Compound 8, 4-[(4-{3-cyano-2-[4-(7H-pyrrolo[2,3-d]pyrimidin-4-yl)-1H-pyrazol-1-yl]propyl}piperazin-1-yl)carbonyl]-3-fluorobenzonitrile], in experiment [1], the JAK2/JAK1 is on record as >10. In addition, the IC50 in experiment [2] was < 10 nM.

For the compound `N#CCC(CN1CCN(C(=O)c2ccc(C#N)cc2F)CC1)n1ccc(-c2ncnc3[nH]ccc23)c1` (centres unmarked) [Compound 9, 4-[(4-{3-cyano-2-[3-(7H-pyrrolo[2,3-d]pyrimidin-4-yl)-1H-pyrrol-1-yl]propyl}piperazin-1-yl)carbonyl]-3-fluorobenzonitrile], the JAK2/JAK1 in experiment [1] was >10. In experiment [2], the IC50 is < 10 nM.

Consider `CC(C)(O)c1cc(O[C@H]2CC[C@@H](N3CC(CC#N)(n4cc(-c5ncnc6[nH]ccc56)cn4)C3)CC2)nc(C(F)(F)F)c1` [Compound 20, {1-(cis-4-{[4-(1-hydroxy-1-methylethyl)-6-(trifluoromethyl)pyridin-2-yl]oxy]cyclohexyl)-3-[4-(7H-pyrrolo[2,3-d]pyrimidin-4-yl)-1H-pyrazol-1-yl]azetidin-3-yl}acetonitrile], for which the JAK2/JAK1 in experiment [1] was >10. Besides, the IC50 in experiment [2] is < 10 nM.

Consider `N#CC[C@]1(n2cc(-c3ncnc4[nH]ccc34)cn2)C[C@H](N2CCC(Oc3cc(CN4CC(O)C4)cc(C(F)(F)F)n3)CC2)C1` [Compound 11, {trans-3-(4-{[4-[(3-hydroxyazetidin-1-yl)methyl]-6-(trifluoromethyl)pyridin-2-yl]oxy}piperidin-1-yl)-1-[4-(7H-pyrrolo[2,3-d]pyrimidin-4-yl)-1H-pyrazo1-1-yl]cyclobutyl}acetonitrile], for which the JAK2/JAK1 in experiment [1] is listed as >10. Also, in experiment [2], the IC50 was < 10 nM.

Regarding `C[C@@H](CO)NCc1cc(OC2CCN([C@H]3C[C@](CC#N)(n4cc(-c5ncnc6[nH]ccc56)cn4)C3)CC2)nc(C(F)(F)F)c1` [Compound 23, {trans-3-(4-{[4-({[(1S)-2-hydroxy-1-methylethyl]amino}methyl)-6-(trifluoromethyl)pyridin-2-yl]oxy}piperidin-1-yl)-1-[4-(7H-pyrrolo[2,3-d]pyrimidin-4-yl)-1H-pyrazol-1-yl]cyclobutyl}acetonitrile], the JAK2/JAK1 in experiment [1] is >10. Further, the IC50 in experiment [2] is < 10 nM.

Turning to `N#CCC1(n2cc(-c3ncnc4[nH]ccc34)cn2)CN(C2CCN(C(=O)Nc3ccc(F)cc3C(F)(F)F)CC2)C1` [Compound 2, 4-{3-(Cyanomethyl)-3-[4-(7H-pyrrolo[2,3-d]pyrimidin-4-yl)-1H-pyrazol-1-yl]azetidin-1-yl}-N-[4-fluoro-2-(trifluoromethyl)phenyl] piperidine-1-carboxamide], the JAK2/JAK1 in experiment [1] is >10. The IC50 in experiment [2] was < 10 nM.

Regarding `N#CCC1(n2cc(-c3ncnc4[nH]ccc34)cn2)CN([C@H]2CC[C@@H](Oc3cc(CN4CC[C@H](O)C4)cc(C(F)(F)F)n3)CC2)C1` [Compound 22, {1-(cis-4-{[4-{[(3S)-3-hydroxypyrrolidin-1-yl]methyl}-6-(trifluoromethyl)pyridin-2-yl]oxy}cyclohexyl)-3-[4-(7H-pyrrolo[2,3-d]pyrimidin-4-yl)-1H-pyrazol-1-yl]azetidin-3-yl}acetonitrile], the JAK2/JAK1 in experiment [1] is given as >10. Further, in experiment [2], the IC50 is < 10 nM.

On to `C[C@H](O)CNCc1cc(OC2CCN([C@H]3C[C@](CC#N)(n4cc(-c5ncnc6[nH]ccc56)cn4)C3)CC2)nc(C(F)(F)F)c1` [Compound 25, {trans-3-(4-{[4-({[(2S)-2-hydroxypropyl]amino}methyl)-6-(trifluoromethyl)pyridin-2-yl]oxy}piperidin-1-yl)-1-[4-(7H-pyrrolo[2,3-d]pyrimidin-4-yl)-1H-pyrazol-1-yl]cyclobutyl}acetonitrile], for which, in experiment [1], the JAK2/JAK1 was >10. The IC50 in experiment [2] is < 10 nM.

In the case of `CCNCc1cc(O[C@H]2CC[C@@H](N3CC(CC#N)(n4cc(-c5ncnc6[nH]ccc56)cn4)C3)CC2)nc(C(F)(F)F)c1` [Compound 19, {1-(cis-4-{[4-[(ethylamino)methyl]-6-(trifluoromethyl)pyridin-2-yl]oxy}cyclohexyl)-3-[4-(7H-pyrrolo[2,3-d]pyrimidin-4-yl)-1H-pyrazol-1-yl]azetidin-3-yl}acetonitrile], the JAK2/JAK1 in experiment [1] was >10. Besides, the concentration for half-maximal inhibition (IC50) in experiment [2] was < 10 nM.

With `N#CC[C@]1(n2cc(-c3ncnc4[nH]ccc34)cn2)C[C@H](N2CCC(Oc3cc(CCO)cc(C(F)(F)F)n3)CC2)C1` [Compound 26, {trans-3-(4-{[4-(2-hydroxyethyl)-6-(trifluoromethyl)pyridin-2-yl]oxy}piperidin-1-yl)-1-[4-(7H-pyrrolo[2,3-d]pyrimidin-4-yl)-1H-pyrazol-1-yl]cyclobutyl]acetonitrile], the JAK2/JAK1 in experiment [1] is >10. For the same compound, the concentration for half-maximal inhibition (IC50) in experiment [2] was < 10 nM.

Regarding `N#CCC1(n2cc(-c3ncnc4[nH]ccc34)cn2)CN(C2CCN(C(=O)c3ccnc(C(F)(F)F)c3F)CC2)C1` [Compound 1, {1-{1-[3-Fluoro-2-(trifluoromethyl)isonicotinoyl]piperidin-4-yl}-3-[4-(7H-pyrrolo [2,3-d]pyrimidin-4-yl)-1H-pyrazol-1-yl]azetidin-3-yl}acetonitrile], the JAK2/JAK1 in experiment [1] is on record as >10. In addition, the half-maximal inhibitory concentration (IC50) in experiment [2] is < 10 nM.

Turning to `N#CCC(C1CCN(c2cccc(Cl)n2)C1)n1cc(-c2ncnc3[nH]ccc23)cn1` (single isomer, unassigned) [Compound 6, 3-[1-(6-chloropyridin-2-yl)pyrrolidin-3-yl]-3-[4-(7H-pyrrolo[2,3-d]pyrimidin-4-yl)-1H-pyrazol-1-yl]propanenitrile], in experiment [1], the JAK2/JAK1 was >10. In experiment [2], the IC50 was < 10 nM.

In the case of `N#CC[C@]1(n2cc(-c3ncnc4[nH]ccc34)cn2)C[C@H](N2CCN(C(=O)c3ccnc(C(F)(F)F)n3)CC2)C1` [Compound 10, [trans-1-[4-(7H-pyrrolo[2,3-d]pyrimidin-4-yl)-1H-pyrazol-1-yl]-3-(4-{[2-(trifluoromethyl)pyrimidin-4-yl]carbonyl}piperazin-1-yl)cyclobutyl]acetonitrile], the JAK2/JAK1 in experiment [1] is >10. Besides, the IC50 in experiment [2] is < 10 nM.
